We go through 5 molecules from patent publication US10670605B2, “Cysteine reactive probes and uses thereof” (The Scripps Research Institute, priority 2015, dated 2020).

Assay in all cases: Competitive isoTOP-ABPP, cell lysates
Assay type in all cases: binding

Assay [1] deals with UBE2L3 C86 (P68036) (Homo sapiens, UniProt P68036). The conditions noted are these: for isoTOP-ABPP reactivity ratio, P68036_C86: 500 μm.
Assay [2] deals with GNB2L1 C182 (P63244) (Homo sapiens, UniProt P63244). The following applies: for isoTOP-ABPP reactivity ratio, P63244_C182: 500 μm.
For assay [3], the target named is SMARCC2 C145 (Q8TAQ2) (Homo sapiens, UniProt Q8TAQ2). The conditions noted are these: for isoTOP-ABPP reactivity ratio, Q8TAQ2_C145: 500 μm.
The target in assay [4] is T1, PDIA6 C190 (Q15084) (Homo sapiens, UniProt Q15084).
T1 sequence (Q15084 20-440): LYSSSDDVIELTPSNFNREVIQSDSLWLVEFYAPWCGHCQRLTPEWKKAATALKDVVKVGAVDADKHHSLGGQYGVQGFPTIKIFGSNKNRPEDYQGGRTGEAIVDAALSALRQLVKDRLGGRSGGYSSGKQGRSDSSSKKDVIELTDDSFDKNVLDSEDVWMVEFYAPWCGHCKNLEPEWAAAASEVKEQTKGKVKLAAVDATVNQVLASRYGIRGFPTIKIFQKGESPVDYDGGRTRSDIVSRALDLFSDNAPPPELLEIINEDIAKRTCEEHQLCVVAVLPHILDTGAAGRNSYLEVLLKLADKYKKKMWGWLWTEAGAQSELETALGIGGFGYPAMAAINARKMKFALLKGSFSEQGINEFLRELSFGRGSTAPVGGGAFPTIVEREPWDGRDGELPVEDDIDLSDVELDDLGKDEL
The conditions noted are these: for isoTOP-ABPP reactivity ratio, Q15084_C190: 500 μm.

The target of assay [5] is SAMHD1 C522 (Q9Y3Z3) (Homo sapiens, UniProt Q9Y3Z3). The conditions noted are these: for isoTOP-ABPP ratio (reactivity profile), Q9Y3Z3_C522: 500 μm in-vitro ramos_231; for isoTOP-ABPP reactivity ratio, Q9Y3Z3_C522: 500 μm.
Assay [6] deals with GSTP1 C48 (P09211) (Homo sapiens, UniProt P09211). The following applies: for isoTOP-ABPP reactivity ratio, P09211_C48: 500 μm.
The target in assay [7] is T2, MGMT C150 (P16455) (Homo sapiens, UniProt P16455).
T2 sequence (P16455 1-207): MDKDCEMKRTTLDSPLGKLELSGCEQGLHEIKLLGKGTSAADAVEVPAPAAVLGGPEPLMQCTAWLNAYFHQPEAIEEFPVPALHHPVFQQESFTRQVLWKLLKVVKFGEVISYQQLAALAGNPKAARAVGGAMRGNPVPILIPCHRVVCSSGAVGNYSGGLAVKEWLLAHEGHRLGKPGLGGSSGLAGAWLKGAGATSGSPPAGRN
The following applies: for isoTOP-ABPP ratio (reactivity profile), P16455_C150: 500 μm in-vitro ramos; for isoTOP-ABPP reactivity ratio, P16455_C150: 500 μm, in-vitro_ramos.

The target of assay [8] is STAT3 C259 (P40763) (Homo sapiens, UniProt P40763). The conditions noted are these: for isoTOP-ABPP reactivity ratio, P40763_C259: 500 μm.
Assay [9] concerns the target XPO1 C34 (O14980) (Homo sapiens, UniProt O14980). The following applies: for isoTOP-ABPP reactivity ratio, O14980_C34: 500 μm.
In assay [10] the target is XPO1 C528 (O14980) (Homo sapiens, UniProt O14980). The following applies: for isoTOP-ABPP reactivity ratio, O14980_C528: 500 μm.
The target in assay [11] is DCUN1D1 C115 (Q96GG9) (Homo sapiens, UniProt Q96GG9). The conditions noted are these: 500 μm, in-vitro_ramos.

Regarding `COc1ccccc1OCCNC(=O)CCl` [compound 28], the “isoTOP-ABPP ratio (reactivity profile), P68036_C86” value in [1] (500 μm in-vitro ramos_231) came to 1.4. Besides, the figures for the “isoTOP-ABPP ratio (reactivity profile), P63244_C182” value in [2] (500 μm in-vitro ramos) and in assay [2] (500 μm in-vitro ramos_231) were 1.1 and 1.0, respectively. Further, the “isoTOP-ABPP ratio (reactivity profile), Q8TAQ2_C145” value in assay [3] (500 μm in-vitro ramos) amounted to 1.2; in assay [3] (500 μm in-vitro ramos_231), 1.1. For the same molecule, the “isoTOP-ABPP ratio (reactivity profile), Q15084_C190” value in assay [4] (500 μm in-vitro ramos) turned out to be 1.6; in assay [4] (500 μm in-vitro ramos_231), 1.1. Moreover, the “isoTOP-ABPP ratio (reactivity profile), Q9Y3Z3_C522” value in [5] amounted to 1.0. In addition, the “isoTOP-ABPP ratio (reactivity profile), P09211_C48” value in assay [6] (500 μm in-vitro ramos) is recorded as 1.5; in [6] (500 μm in-vitro ramos_231), 1.3. Moreover, in [7], the “isoTOP-ABPP ratio (reactivity profile), P16455_C150” value was found to be 1.7. In addition, the “isoTOP-ABPP ratio (reactivity profile), P40763_C259” value in assay [8] (500 μm in-vitro ramos) worked out at 1.1; in assay [8] (500 μm in-vitro ramos_231) it was 1.0. Further, the “isoTOP-ABPP ratio (reactivity profile), O14980_C34” value is 0.9 in assay [9] (500 μm in-vitro ramos) and 0.8 in assay [9] (500 μm in-vitro ramos_231).
For the molecule `O=C(CCl)N1CCN(CC(=O)N2CCOCC2)CC1` [compound 29], the “isoTOP-ABPP ratio (reactivity profile), P68036_C86” value amounted to 1.5 in assay [1] (500 μm in-vitro ramos) and 0.9 in [1] (500 μm in-vitro ramos_231). Besides, the “isoTOP-ABPP ratio (reactivity profile), O14980_C528” value in assay [10] (500 μm in-vitro ramos_231) is given as 1.0. In addition, the “isoTOP-ABPP ratio (reactivity profile), P63244_C182” value in assay [2] (500 μm in-vitro ramos) came to 1.2; in [2] (500 μm in-vitro ramos_231) it was 1.3. The “isoTOP-ABPP ratio (reactivity profile), Q8TAQ2_C145” value in assay [3] (500 μm in-vitro ramos_231) is recorded as 1.0. For the same molecule, the “isoTOP-ABPP ratio (reactivity profile), Q15084_C190” value in assay [4] (500 μm in-vitro ramos_231) was 1.2. Further, the “isoTOP-ABPP ratio (reactivity profile), Q9Y3Z3_C522” value in [5] was 1.5. The “isoTOP-ABPP ratio (reactivity profile), P09211_C48” value came out at 0.4 in assay [6] (500 μm in-vitro ramos) and 1.0 in [6] (500 μm in-vitro ramos_231). Moreover, the “isoTOP-ABPP ratio (reactivity profile), P16455_C150” value in assay [7] is recorded as 1.3. Also, the “isoTOP-ABPP ratio (reactivity profile), P40763_C259” value in assay [8] (500 μm in-vitro ramos_231) is on record as 1.5. Besides, the “isoTOP-ABPP ratio (reactivity profile), O14980_C34” value in [9] (500 μm in-vitro ramos) is on record as 0.9; in assay [9] (500 μm in-vitro ramos_231), 1.3.
As for `C=CC(=O)N1CCC(c2noc3ccc(F)cc23)CC1` [compound 37], in assay [11], the “isoTOP-ABPP reactivity ratio, Q96GG9_C115” value was 0.8. The “isoTOP-ABPP reactivity ratio, O14980_C528” value in assay [10] (in-vitro_ramos) is 0.9. In addition, in [2] (in-vitro_ramos), the “isoTOP-ABPP reactivity ratio, P63244_C182” value came to 0.9. Further, the “isoTOP-ABPP reactivity ratio, Q15084_C190” value in assay [4] (in-vitro_ramos) is given as 1.1. In addition, in [5] (in-vitro_ramos), the “isoTOP-ABPP reactivity ratio, Q9Y3Z3_C522” value was found to be 0.7. The “isoTOP-ABPP reactivity ratio, P09211_C48” value in assay [6] (in-vitro_ramos) is 1.2. Moreover, the “isoTOP-ABPP reactivity ratio, P16455_C150” value in [7] was 1.0. In [8] (in-vitro_ramos), the “isoTOP-ABPP reactivity ratio, P40763_C259” value is listed as 0.9. Further, the “isoTOP-ABPP reactivity ratio, O14980_C34” value in assay [9] (in-vitro_ramos) turned out to be 0.9.
As for `C=CC(=O)Nc1cc(C)c(Br)cc1C` [compound 40], the “isoTOP-ABPP reactivity ratio, P68036_C86” value was found to be 0.9 in assay [1] (in-vitro_ramos) and 0.8 in assay [1] (in-vitro_ramos_231). For the same molecule, the “isoTOP-ABPP reactivity ratio, Q96GG9_C115” value in assay [11] was 0.9. In addition, the “isoTOP-ABPP reactivity ratio, P63244_C182” value in assay [2] (in-vitro_ramos) was found to be 0.6; in assay [2] (in-vitro_ramos_231), 1.0. Further, the entries for the “isoTOP-ABPP reactivity ratio, Q8TAQ2_C145” value in assay [3] (in-vitro_ramos) and in [3] (in-vitro_ramos_231) were 1.1 and 0.9, respectively. Further, the “isoTOP-ABPP reactivity ratio, Q15084_C190” value in [4] (in-vitro_ramos) is given as 1.7; in assay [4] (in-vitro_ramos_231) it was 0.9. Moreover, in [5] (in-vitro_ramos_231), the “isoTOP-ABPP reactivity ratio, Q9Y3Z3_C522” value came to 0.8. The “isoTOP-ABPP reactivity ratio, P09211_C48” value in [6] (in-vitro_ramos) and in assay [6] (in-vitro_ramos_231) was 1.6 in each case. In addition, the “isoTOP-ABPP reactivity ratio, P16455_C150” value in [7] is 1.9. For the same molecule, in assay [8] (in-vitro_ramos), the “isoTOP-ABPP reactivity ratio, P40763_C259” value was determined as 1.4. Also, the “isoTOP-ABPP reactivity ratio, O14980_C34” value was 1.1 in assay [9] (in-vitro_ramos) and 0.8 in [9] (in-vitro_ramos_231).
For `Cc1ccc(C=C(C#N)C(=O)NCCN2CCOCC2)cc1` [compound 41], the “isoTOP-ABPP reactivity ratio, P68036_C86” value is on record as 7.9 in [1] (in-vitro_ramos) and 9.8 in assay [1] (in-vitro_ramos_231). Besides, in [10] (in-vitro_ramos_231), the “isoTOP-ABPP reactivity ratio, O14980_C528” value is reported as 0.6. For the same molecule, in assay [2] (in-vitro_ramos), the “isoTOP-ABPP reactivity ratio, P63244_C182” value amounted to 4.7. The “isoTOP-ABPP reactivity ratio, Q8TAQ2_C145” value is on record as 2.8 in [3] (in-vitro_ramos) and 1.8 in assay [3] (in-vitro_ramos_231). Further, in assay [4] (in-vitro_ramos_231), the “isoTOP-ABPP reactivity ratio, Q15084_C190” value came to 1.0. For the same molecule, in [5] (in-vitro_ramos_231), the “isoTOP-ABPP reactivity ratio, Q9Y3Z3_C522” value worked out at 0.9. Besides, the “isoTOP-ABPP reactivity ratio, P09211_C48” value in assay [6] (in-vitro_ramos) is given as 0.9; in assay [6] (in-vitro_ramos_231) it was 1.3. In addition, the “isoTOP-ABPP reactivity ratio, P16455_C150” value in assay [7] turned out to be 0.9. Besides, the “isoTOP-ABPP reactivity ratio, P40763_C259” value in assay [8] (in-vitro_ramos_231) was 0.9. The “isoTOP-ABPP reactivity ratio, O14980_C34” value came to 2.0 in assay [9] (in-vitro_ramos) and 3.1 in assay [9] (in-vitro_ramos_231).
